Literature values, collected in patent US10112976B2, “Process for the production of D-arginyl-2,6-dimethyl-L-tyrosyl-L-lysyl-L-phenylalaninamide” (Flamma S.P.A., priority 2014, dated 2018).
Non-standard residues stand in square brackets, D forms with d. Residues, ends and D or L forms follow the SMILES beside them. Dmt = Cc1cc(O)cc(C)c1C[C@H](N)C(=O)O

Legend:
[1] = test system: N2A neuronal cell line; settings: <1 nM; N2A cells
[2] = test system: SH—SY5Y neuronal cell line; settings: <1 nM; SH—SY5Y cells
[3] = test system: rats with unilateral ureteral obstruction; settings: intraperitoneal 1 and 3 mg/kg, 1 day prior to obstruction and every day for 14 days
[4] = test system: mouse pancreatic islets; settings: 3 mg/kg i.p. qd for 2 weeks
[5] = test system: G93A mouse model of amyotrophic lateral sclerosis; settings: 5 mg/kg/day i.p. starting at 30 days of age
[6] = test system: inner mitochondrial membrane
[7] = molecular target: mu-opioid receptor (Homo sapiens, UniProt P35372); settings: as stated for WO 2013/086020, WO 2004/070054, WO 2005/072295
mu-opioid receptor, sequence (P35372 whole entry): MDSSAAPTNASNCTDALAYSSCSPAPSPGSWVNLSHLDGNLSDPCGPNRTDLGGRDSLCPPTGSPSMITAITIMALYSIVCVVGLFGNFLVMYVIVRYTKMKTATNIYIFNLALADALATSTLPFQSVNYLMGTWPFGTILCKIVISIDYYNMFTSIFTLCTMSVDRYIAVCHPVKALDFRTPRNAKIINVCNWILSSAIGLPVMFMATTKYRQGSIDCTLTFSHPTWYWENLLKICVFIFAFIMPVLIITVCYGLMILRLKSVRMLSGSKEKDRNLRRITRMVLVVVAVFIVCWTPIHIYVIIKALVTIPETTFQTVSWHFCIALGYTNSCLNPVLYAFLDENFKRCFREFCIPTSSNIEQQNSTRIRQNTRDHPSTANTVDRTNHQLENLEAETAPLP

Cc1cc(O)cc(C)c1C[C@H](NC(=O)[C@H](N)CCCNC(=N)N)C(=O)N[C@@H](CCCCN)C(=O)N[C@@H](Cc1ccccc1)C(N)=O [D-Arginyl-2,6-dimethyl-L-tyrosyl-L-lysyl-L-phenylalaninamide] (H-[dR][Dmt]KF-NH2)
intracellular reactive oxygen species [1]: significantly reduced
mitochondrial potential [1]: increased
tBHP-induced apoptosis [1]: prevented
intracellular reactive oxygen species [2]: significantly reduced
mitochondrial potential [2]: increased
tBHP-induced apoptosis [2]: prevented
interstitial fibrosis [3]: significantly decreased
macrophage infiltration [3]: significantly decreased
tubular damage [3]: significantly decreased
apoptosis in pancreatic islets caused by streptozotocin [4]: prevented
insulin reduction in pancreatic islets caused by streptozotocin [4]: prevented
disease onset [5]: significant delay
antioxidant activity [6]: showed antioxidant activity
mu-opioid receptor agonist activity [7]: does not have mu-opioid receptor agonist activity
